Laboratory results: PMC8839210, “Identification of Inhibitory Activities of Dietary Flavonoids against URAT1, a Renal Urate Re-Absorber: In Vitro Screening and Fractional Approach Focused on Rooibos Leaves” (Nutrients, 2022)

Experiments:
[1] = biological target: T1, URAT1 (Homo sapiens, UniProt Q96S37); experiment: Urate transport assay using URAT1-expressing 293A cells; format: cell-based; settings: for remaining activity at 100 µM: 293A, authentic chemical 100 μM, mean ± S.D., n = 3, read-out: URAT1-mediated urate transport activity, % of the control; for remaining activity at 100 µM / IC50: 20 s; for IC50: [14C]-urate 5 μM, 37 °C, URAT1-expressing 293A cells, read-out: IC50 against URAT1-mediated urate transport
T1 construct: The complete human URAT1 cDNA in pEGFP-C1; expressed in transfected cells; host or cells: 293A cells (human embryonic kidney 293-derived), transient transfection with PEI-MAX
T1 sequence (Q96S37 1-553): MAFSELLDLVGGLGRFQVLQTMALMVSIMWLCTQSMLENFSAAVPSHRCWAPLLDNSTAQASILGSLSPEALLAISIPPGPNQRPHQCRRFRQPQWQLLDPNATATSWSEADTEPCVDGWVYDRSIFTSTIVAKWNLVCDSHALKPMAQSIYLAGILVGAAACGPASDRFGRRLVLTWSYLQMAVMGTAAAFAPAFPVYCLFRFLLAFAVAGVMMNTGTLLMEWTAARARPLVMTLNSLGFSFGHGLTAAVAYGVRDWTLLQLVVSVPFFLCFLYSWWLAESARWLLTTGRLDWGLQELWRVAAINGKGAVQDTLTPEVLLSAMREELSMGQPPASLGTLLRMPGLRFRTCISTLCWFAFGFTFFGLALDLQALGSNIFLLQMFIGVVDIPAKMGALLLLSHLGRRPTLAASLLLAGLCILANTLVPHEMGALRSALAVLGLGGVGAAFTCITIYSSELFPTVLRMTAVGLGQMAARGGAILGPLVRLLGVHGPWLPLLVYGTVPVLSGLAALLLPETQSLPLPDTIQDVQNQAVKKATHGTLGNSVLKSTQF
Description: After 24 h, each vector was transiently transfected into the cells (1 μg of plasmid/5 μL of PEI-MAX/well). At 24 h after transfection, the culture medium was replaced with fresh one.
Briefly, 48 h after plasmid transfection, cells were washed twice with Buffer T2 and then pre-incubated in Buffer T2 for 15 min at 37 °C. Then, the buffer was exchanged with pre-warmed fresh Buffer T2 containing radiolabeled urate ([8-^14C]-uric acid; final concentration, 5 μM) with or without the test compound at the indicated concentrations (0, 0.3, 1, 3, 10, 30, 100, 300, or 500 μM); the cells were further incubated for 20 s at 37 °C; as vehicle control, 1% DMSO was used in this study. Subsequently, the cells were washed five times with ice-cold Buffer T2; then, the cells were lysed with 0.2 M NaOH solution (500 μL/well) on ice. The resulting lysates were neutralized with 1 M HCl solution (100 μL/well). […] Using a Pierce BCA Protein Assay Kit (Thermo Fisher Scientific, Kanagawa, Japan), protein concentration was determined. Urate transport activity was calculated as the incorporated clearance (μL/mg protein/min): (incorporated level of urate [DPM/mg protein/min]/urate level in the incubation mixture [DPM/μL]). URAT1-dependent urate transport activity was calculated by subtracting the urate transport activity of mock (control) cells from that of URAT1-expressing cells.
Urate uptake was examined in the presence of several concentrations of each test compound to determine their IC50 values. Then, URAT1-mediated transport activities were expressed as a percentage of the control (100%).

[2] = parameters: method as in PMID 26785820; settings: healthy males, four weeks, cited from earlier work
[3] = tested on: xanthine oxidoreductase (XOD); settings: cited from earlier work
[4] = biological target: T1, URAT1; settings: cited from earlier work

## O=c1c(O)c(-c2ccc(O)c(O)c2)oc2cc(O)c(O)c(O)c12 [Quercetagetin]
[1]
  remaining activity at 100 µM: < 50%
  IC50: 18.4 µM

## O=c1cc(-c2ccc(O)c(O)c2)oc2cc(O)cc(O)c12 [Luteolin]
[1]
  remaining activity at 100 µM: < 50%
  IC50: 25.7 µM

## O=c1c(O)c(-c2ccc(O)c(O)c2)oc2cc(O)cc(O)c12 [Quercetin]
[1]; 300 μM, experimentally maximum concentration
  Effect on URAT1-mediated urate transport (in words): inhibited URAT1
[1]
  IC50: 12.6 µM
[2]; 500 mg quercetin daily as single tablet, mean plasma uric acid 5.5 mg/dL
  Plasma uric acid concentration, mean difference: -0.45 mg/dL
[2]; 500 mg quercetin daily
  Urinary uric acid output over 24 h (24 h-UUA), before vs after treatment: no significant difference
[3]
  XOD inhibition (in words): inhibitory activity

## O=C(CCc1ccc(O)c(O)c1)c1c(O)cc(O)c([C@@H]2O[C@H](CO)[C@@H](O)[C@H](O)[C@H]2O)c1O [aspalathin, reference compound]
[3]
  XOD inhibition (in words): inhibits XOD

## O=c1c(O)c(-c2ccc(O)c(O)c2)oc2c(O)c(O)cc(O)c12 [Gossypetin]
[1]
  remaining activity at 100 µM: < 50%
  IC50: 31.3 µM

## O=c1c(-c2ccc(O)cc2)coc2cc(O)cc(O)c12 [Genistein]
[1]
  remaining activity at 100 µM: < 50%
  IC50: 101 µM

## O=c1c(O)c(-c2ccc(O)c(O)c2)oc2cc(O)ccc12 [Fisetin]
[1]
  remaining activity at 100 µM: < 50%
  IC50: 7.5 µM

## O=c1c(O)c(-c2ccc(O)cc2O)oc2cc(O)cc(O)c12 [morin, Morin]
[1]
  remaining activity at 100 µM: < 50%
[4]; previous report
  URAT1 inhibition (in words): URAT1 inhibitor

## O=c1c(O)c(-c2cc(O)c(O)c(O)c2)oc2cc(O)cc(O)c12 [Myricetin]
[1]
  remaining activity at 100 µM: < 50%
  IC50: 18.1 µM

## O=C1C[C@@H](c2ccc(O)cc2)Oc2cc(O)cc(O)c21 [naringenin, reference compound]
[4]; 100 μM, previous study of the authors
  URAT1-mediated urate transport activity, % of the control: 17.9 ± 7.7%

## O=C(/C=C/c1ccc(O)cc1)c1c(O)cc(O)cc1O [naringenin chalcone, Naringenin chalcone]
[1]
  remaining activity at 100 µM: < 50%
